Data taken from PubChem BioAssay (NCI).
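Five compound concentrations were applied to cells in 96-well plates for 48 hours; endpoints were derived by simple linear interpolation of the resulting dose-response curve. Here, GI50 denotes the concentration required for 50% inhibition of growth. TGI marks complete inhibition of growth.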

How the values were obtained:
Assay in all cases: NCI anticancer screen, dose series, 48 h
CAKI-1 renal = system: CAKI-1 renal
CCRF-CEM leukemia = system: CCRF-CEM leukemia
HL-60(TB) leukemia = system: HL-60(TB) leukemia
HOP-62 NSCLC = system: HOP-62 NSCLC
IGROV1 ovarian = system: IGROV1 ovarian
OVCAR-3 ovarian = system: OVCAR-3 ovarian
SK-MEL-5 melanoma = system: SK-MEL-5 melanoma
SN12C renal = system: SN12C renal
MCF7 breast = system: MCF7 breast

Compound: CCOC(=O)CC1=CSC2=NCCN12
- TGI (CAKI-1 renal): > 100 µM
- TGI (CCRF-CEM leukemia): > 100 µM
- TGI (HL-60(TB) leukemia): > 100 µM
- TGI (HOP-62 NSCLC): > 100 µM
- TGI (IGROV1 ovarian): > 100 µM
- TGI (OVCAR-3 ovarian): > 100 µM
- TGI (SK-MEL-5 melanoma): > 100 µM
- TGI (SN12C renal): > 100 µM

Compound: Cc1c2cc[nH]c(=O)c2cc2c(=O)c3cnccc3[nH]c12
- TGI (CAKI-1 renal): > 100 µM
- TGI (CCRF-CEM leukemia): > 100 µM
- TGI (HL-60(TB) leukemia): > 100 µM
- TGI (HOP-62 NSCLC): > 100 µM
- TGI (IGROV1 ovarian): > 100 µM
- TGI (OVCAR-3 ovarian): > 100 µM
- TGI (SK-MEL-5 melanoma): > 100 µM
- TGI (SN12C renal): > 100 µM

Compound: CC(C)(O)C1OCC(C2CCC3(C)C4=CCC5C(C)(C)C(O)CCC5(C)C4CCC23C)CC1O (configuration not stated)
- TGI (CAKI-1 renal): 29.4 µM
- TGI (CCRF-CEM leukemia): > 100 µM
- TGI (HL-60(TB) leukemia): > 100 µM
- TGI (IGROV1 ovarian): 31 µM
- TGI (MCF7 breast): 23.8 µM
- TGI (OVCAR-3 ovarian): 40 µM
- TGI (SK-MEL-5 melanoma): 27.8 µM
- TGI (SN12C renal): 27.5 µM

Compound: CCOC(=O)C(C)c1cc(C2(C)OCCO2)c(C)o1 (configuration not stated)
- TGI (CCRF-CEM leukemia): > 100 µM
- TGI (HL-60(TB) leukemia): > 100 µM
- TGI (HOP-62 NSCLC): > 100 µM
- TGI (IGROV1 ovarian): > 100 µM
- TGI (OVCAR-3 ovarian): > 100 µM
- TGI (SK-MEL-5 melanoma): > 100 µM
- TGI (SN12C renal): > 100 µM

Compound: Nc1ccccc1C#C/C=C\C#Cc1ccc(Cl)cc1Cl
- GI50 (CAKI-1 renal): 3.38 µM
- TGI (CAKI-1 renal): 13.5 µM
- GI50 (CCRF-CEM leukemia): 0.376 µM
- TGI (CCRF-CEM leukemia): 10.6 µM
- GI50 (HOP-62 NSCLC): 16.6 µM
- TGI (HOP-62 NSCLC): 32.8 µM
- GI50 (IGROV1 ovarian): 14.8 µM
- TGI (IGROV1 ovarian): 38.7 µM
- GI50 (MCF7 breast): 3.52 µM
- TGI (MCF7 breast): 39.7 µM
- GI50 (OVCAR-3 ovarian): 5.19 µM
- TGI (OVCAR-3 ovarian): 17.9 µM
- GI50 (SK-MEL-5 melanoma): 6.63 µM
- TGI (SK-MEL-5 melanoma): 21.2 µM
- GI50 (SN12C renal): 14.4 µM
- TGI (SN12C renal): 30.5 µM

Compound: CC(C(=O)Oc1ccc2ccccc2c1-c1c(O)ccc2ccccc12)c1ccccc1 (configuration not stated)
- TGI (CAKI-1 renal): 24 µM
- TGI (CCRF-CEM leukemia): 64.4 µM
- TGI (HL-60(TB) leukemia): 35.1 µM
- TGI (HOP-62 NSCLC): 29.8 µM
- TGI (IGROV1 ovarian): 34.9 µM
- TGI (OVCAR-3 ovarian): 26.6 µM
- TGI (SK-MEL-5 melanoma): 26.8 µM
- TGI (SN12C renal): 29.7 µM

Compound: ON=C1CCC(c2ccccc2)CC1 (configuration not stated)
- TGI (CAKI-1 renal): > 100 µM
- TGI (CCRF-CEM leukemia): > 100 µM
- TGI (HL-60(TB) leukemia): > 100 µM
- TGI (HOP-62 NSCLC): > 100 µM
- TGI (IGROV1 ovarian): > 100 µM
- TGI (OVCAR-3 ovarian): > 100 µM
- TGI (SK-MEL-5 melanoma): > 100 µM
- TGI (SN12C renal): > 100 µM

Compound: C/C=C(\C)C(=O)O[C@H]1C=CC(=O)O[C@H]1CNC(=O)[C@H](C)O
- GI50 (CAKI-1 renal): 26.8 µM
- TGI (CAKI-1 renal): 44.4 µM
- GI50 (HL-60(TB) leukemia): 16.8 µM
- TGI (HL-60(TB) leukemia): 39.3 µM
- GI50 (HOP-62 NSCLC): 23.9 µM
- TGI (HOP-62 NSCLC): 54 µM
- GI50 (IGROV1 ovarian): 22.6 µM
- TGI (IGROV1 ovarian): 53.3 µM
- GI50 (MCF7 breast): 19.7 µM
- TGI (MCF7 breast): 42.3 µM
- GI50 (OVCAR-3 ovarian): 17 µM
- TGI (OVCAR-3 ovarian): 30.9 µM
- GI50 (SK-MEL-5 melanoma): 17 µM
- TGI (SK-MEL-5 melanoma): 31.3 µM
- GI50 (SN12C renal): 18.9 µM
- TGI (SN12C renal): 40.3 µM

Compound: O=C([CH-]C(=O)c1ccccc1)c1ccccc1.O=C([CH-]C(=O)c1ccccc1)c1ccccc1.[Nd+3].[OH-].[OH3+]
- GI50 (CAKI-1 renal): 13.6 µM
- TGI (CAKI-1 renal): 40.9 µM
- GI50 (HL-60(TB) leukemia): 1.8 µM
- TGI (HL-60(TB) leukemia): 8.17 µM
- GI50 (HOP-62 NSCLC): 3.58 µM
- TGI (HOP-62 NSCLC): 18.4 µM
- GI50 (IGROV1 ovarian): 11.5 µM
- TGI (IGROV1 ovarian): 61.2 µM
- GI50 (OVCAR-3 ovarian): 8.31 µM
- TGI (OVCAR-3 ovarian): 26.6 µM
- GI50 (SK-MEL-5 melanoma): 3.94 µM
- TGI (SK-MEL-5 melanoma): 17.2 µM
- GI50 (SN12C renal): 12.6 µM
- TGI (SN12C renal): 70.7 µM

Compound: COc1ccc(/C=C2/C[N+](C)(C)C/C(=C/c3ccc(OC)cc3)C2=O)cc1
- TGI (CAKI-1 renal): > 100 µM
- TGI (CCRF-CEM leukemia): > 96.1 µM
- TGI (HL-60(TB) leukemia): 44.4 µM
- TGI (HOP-62 NSCLC): > 100 µM
- TGI (IGROV1 ovarian): 64.7 µM
- TGI (OVCAR-3 ovarian): 98.5 µM
- TGI (SK-MEL-5 melanoma): > 72 µM
- TGI (SN12C renal): > 100 µM

Compound: O=C1c2ccccc2-c2c1c1ccccc1c(=O)n2CCNCCNCCn1c2c(c3ccccc3c1=O)C(=O)c1ccccc1-2
- GI50 (CAKI-1 renal): 0.527 µM
- TGI (CAKI-1 renal): 18.4 µM
- GI50 (HL-60(TB) leukemia): 98.5 µM
- TGI (HL-60(TB) leukemia): > 100 µM
- GI50 (HOP-62 NSCLC): 0.0288 µM
- TGI (HOP-62 NSCLC): 4.5 µM
- GI50 (IGROV1 ovarian): 1.02 µM
- TGI (IGROV1 ovarian): > 21.2 µM
- GI50 (MCF7 breast): 0.109 µM
- TGI (MCF7 breast): 1.06 µM
- GI50 (OVCAR-3 ovarian): 1.02 µM
- TGI (OVCAR-3 ovarian): 8.98 µM
- GI50 (SK-MEL-5 melanoma): 0.957 µM
- TGI (SK-MEL-5 melanoma): 19.9 µM
- GI50 (SN12C renal): 0.13 µM
- TGI (SN12C renal): 14.1 µM

Compound: O=C(c1ccccc1)c1c(C(=O)c2ccccc2)c(-c2ccccc2)c2c(-c3ccccc3)sc(-c3ccccc3)c2c1-c1ccccc1
- TGI (CAKI-1 renal): > 100 µM
- TGI (CCRF-CEM leukemia): > 100 µM
- TGI (HL-60(TB) leukemia): > 100 µM
- TGI (HOP-62 NSCLC): > 100 µM
- TGI (IGROV1 ovarian): > 100 µM
- TGI (OVCAR-3 ovarian): > 100 µM
- TGI (SK-MEL-5 melanoma): > 100 µM
- TGI (SN12C renal): > 100 µM

Compound: CC(=O)OCC1OC(n2c(=O)n(-c3ccccc3)c(=O)c3ccccc32)C(OC(C)=O)C(OC(C)=O)C1OC(C)=O (configuration not stated)
- TGI (CAKI-1 renal): > 100 µM
- TGI (CCRF-CEM leukemia): > 100 µM
- TGI (HL-60(TB) leukemia): > 100 µM
- TGI (HOP-62 NSCLC): > 100 µM
- TGI (IGROV1 ovarian): > 100 µM
- TGI (OVCAR-3 ovarian): > 100 µM
- TGI (SK-MEL-5 melanoma): > 100 µM
- TGI (SN12C renal): > 100 µM

Compound: c1ccc(N=C2c3ccccc3C3=NCCCN32)cc1
- TGI (CAKI-1 renal): > 100 µM
- TGI (CCRF-CEM leukemia): > 100 µM
- TGI (HOP-62 NSCLC): > 100 µM
- TGI (IGROV1 ovarian): > 100 µM
- TGI (OVCAR-3 ovarian): > 100 µM
- TGI (SK-MEL-5 melanoma): 76.8 µM
- TGI (SN12C renal): > 100 µM

Compound: COC(=O)C1=C(O)C(O)=C(C(=O)OC)C1
- TGI (CAKI-1 renal): > 100 µM
- TGI (CCRF-CEM leukemia): > 100 µM
- TGI (HL-60(TB) leukemia): > 100 µM
- TGI (HOP-62 NSCLC): > 100 µM
- TGI (IGROV1 ovarian): > 100 µM
- TGI (OVCAR-3 ovarian): > 100 µM
- TGI (SK-MEL-5 melanoma): > 100 µM
- TGI (SN12C renal): > 100 µM

Compound: Cc1cc(S(=O)(=O)Nc2nnc(-c3ccccc3)c(-c3ccccc3)n2)c(SCc2ccccc2)cc1Cl
- GI50 (CAKI-1 renal): 25.5 µM
- TGI (CAKI-1 renal): 42.5 µM
- GI50 (CCRF-CEM leukemia): 23.8 µM
- TGI (CCRF-CEM leukemia): 75.5 µM
- GI50 (HL-60(TB) leukemia): 34.1 µM
- TGI (HL-60(TB) leukemia): 67.2 µM
- GI50 (HOP-62 NSCLC): 22.9 µM
- TGI (HOP-62 NSCLC): 39.6 µM
- GI50 (IGROV1 ovarian): 37.3 µM
- TGI (IGROV1 ovarian): > 100 µM
- GI50 (MCF7 breast): 24 µM
- TGI (MCF7 breast): 54.2 µM
- GI50 (OVCAR-3 ovarian): 17.9 µM
- TGI (OVCAR-3 ovarian): 34.8 µM
- GI50 (SK-MEL-5 melanoma): 17 µM
- TGI (SK-MEL-5 melanoma): 33.5 µM

Compound: COc1ccc2ccc([Se]c3ccc4ccc(OC)cc4c3)cc2c1
- TGI (CAKI-1 renal): > 100 µM
- TGI (CCRF-CEM leukemia): > 100 µM
- TGI (HL-60(TB) leukemia): > 100 µM
- TGI (HOP-62 NSCLC): > 100 µM
- TGI (IGROV1 ovarian): > 100 µM
- TGI (OVCAR-3 ovarian): > 100 µM
- TGI (SK-MEL-5 melanoma): > 100 µM
- TGI (SN12C renal): > 100 µM
